# Test results from ChEMBL document CHEMBL5226326, “Discovery of 1-Benzoyl 4-Phenoxypiperidines as Small-Molecule Inhibitors of the β-Catenin/B-Cell Lymphoma 9 Protein-Protein Interaction” (J Med Chem, 2021).
# How the values were obtained:
# [1] = target: T1, beta-catenin-B-cell lymphoma 9 protein complex (Homo sapiens, UniProt P35222); assay: Inhibition of full length beta-catenin (1 to 781 residues) (unknown origin) expressed in Escherichia coli BL21 (DE3)/N-terminal biotinylated human BCL9 HD2 (350 to 375 residues) protein-protein interaction assessed as inhibition constant incubated for 1 hr by Alphascreen assay
# T1 sequence (P35222 whole entry): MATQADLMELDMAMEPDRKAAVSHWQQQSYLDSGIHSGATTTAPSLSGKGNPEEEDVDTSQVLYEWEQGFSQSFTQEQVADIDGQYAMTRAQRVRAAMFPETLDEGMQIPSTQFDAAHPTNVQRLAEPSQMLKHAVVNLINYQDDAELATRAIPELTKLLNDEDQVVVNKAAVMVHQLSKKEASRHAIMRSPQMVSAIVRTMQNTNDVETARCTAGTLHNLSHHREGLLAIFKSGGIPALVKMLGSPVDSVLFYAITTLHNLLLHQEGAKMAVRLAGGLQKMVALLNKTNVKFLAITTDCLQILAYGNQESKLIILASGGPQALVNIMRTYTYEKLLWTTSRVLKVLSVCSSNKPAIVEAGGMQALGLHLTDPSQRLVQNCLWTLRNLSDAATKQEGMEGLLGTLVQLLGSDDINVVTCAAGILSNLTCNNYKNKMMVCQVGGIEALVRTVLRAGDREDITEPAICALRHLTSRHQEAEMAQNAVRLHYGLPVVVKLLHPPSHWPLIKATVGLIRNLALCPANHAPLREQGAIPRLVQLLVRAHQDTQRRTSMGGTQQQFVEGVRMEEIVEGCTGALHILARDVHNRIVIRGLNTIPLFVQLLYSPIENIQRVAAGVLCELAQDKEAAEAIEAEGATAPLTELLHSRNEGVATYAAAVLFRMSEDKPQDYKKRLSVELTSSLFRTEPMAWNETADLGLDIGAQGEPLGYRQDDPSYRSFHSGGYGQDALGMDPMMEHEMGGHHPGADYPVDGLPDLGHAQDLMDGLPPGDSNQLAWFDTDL
# T1 sequence (O00512 whole entry): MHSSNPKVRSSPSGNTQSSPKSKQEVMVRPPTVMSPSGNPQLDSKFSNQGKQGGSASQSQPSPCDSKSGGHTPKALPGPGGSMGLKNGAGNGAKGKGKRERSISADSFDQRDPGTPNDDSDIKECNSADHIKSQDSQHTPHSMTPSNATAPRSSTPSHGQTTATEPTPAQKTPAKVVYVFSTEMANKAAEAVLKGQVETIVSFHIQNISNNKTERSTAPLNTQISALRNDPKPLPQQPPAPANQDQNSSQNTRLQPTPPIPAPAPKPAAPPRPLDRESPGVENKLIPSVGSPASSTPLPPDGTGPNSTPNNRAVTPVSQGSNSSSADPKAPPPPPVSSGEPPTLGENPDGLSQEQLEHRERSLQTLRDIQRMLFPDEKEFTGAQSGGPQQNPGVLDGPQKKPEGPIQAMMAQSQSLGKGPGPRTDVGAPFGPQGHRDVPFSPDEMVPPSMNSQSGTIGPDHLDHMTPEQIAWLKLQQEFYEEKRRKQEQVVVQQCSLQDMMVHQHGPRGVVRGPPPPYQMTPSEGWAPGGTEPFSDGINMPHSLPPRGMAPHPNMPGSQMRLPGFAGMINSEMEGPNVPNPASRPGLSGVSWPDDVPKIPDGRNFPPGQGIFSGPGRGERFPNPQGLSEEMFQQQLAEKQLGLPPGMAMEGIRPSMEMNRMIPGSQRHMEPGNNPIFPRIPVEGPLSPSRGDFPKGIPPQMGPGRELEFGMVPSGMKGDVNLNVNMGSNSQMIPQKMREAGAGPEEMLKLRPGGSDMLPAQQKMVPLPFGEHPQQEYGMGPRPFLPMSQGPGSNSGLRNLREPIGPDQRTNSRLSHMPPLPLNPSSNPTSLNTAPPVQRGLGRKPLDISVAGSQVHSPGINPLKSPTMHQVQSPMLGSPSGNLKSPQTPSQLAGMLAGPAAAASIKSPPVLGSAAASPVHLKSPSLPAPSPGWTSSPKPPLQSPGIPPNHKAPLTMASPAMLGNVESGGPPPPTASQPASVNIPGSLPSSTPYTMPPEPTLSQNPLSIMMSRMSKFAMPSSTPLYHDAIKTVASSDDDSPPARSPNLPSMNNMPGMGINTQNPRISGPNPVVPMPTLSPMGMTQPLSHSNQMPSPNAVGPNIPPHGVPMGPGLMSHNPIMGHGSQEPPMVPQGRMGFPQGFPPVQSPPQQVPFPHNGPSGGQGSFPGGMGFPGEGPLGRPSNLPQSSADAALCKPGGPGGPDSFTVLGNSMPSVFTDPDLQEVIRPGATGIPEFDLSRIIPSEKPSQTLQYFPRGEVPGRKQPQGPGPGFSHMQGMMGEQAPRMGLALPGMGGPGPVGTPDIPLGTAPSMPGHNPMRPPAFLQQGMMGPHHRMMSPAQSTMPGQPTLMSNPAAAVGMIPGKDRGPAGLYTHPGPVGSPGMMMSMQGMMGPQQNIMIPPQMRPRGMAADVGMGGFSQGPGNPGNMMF
# [2] = Inhibition of Wnt/beta-catenin D145A/E155A mutant transactivation signalling in human HEK293 cells transfected with TOPFlash reporter gene incubated for 24 hrs by TOPFlash luciferase assay; type: cell-based; settings: HEK293, 24 h
# SW480 = assay: Antiproliferative activity against beta-catenin signalling overexpressing human SW480 cells assessed as reduction in cell growth incubated for 72 hrs by MTS assay; type: functional, cell-based; settings: SW480, 72 h
smiles,measurement,setting,value
CC(C)(C)C1CCC(c2cc(C(=O)N3CCC(Oc4cc(N5CCNCC5)ccc4C#N)CC3)ccc2O[C@H]2CCNC2)CC1.Cl.Cl (mixture of isomers; cis),Ki,[1],960 nM
same,IC50,[2],24 µM
same,IC50,SW480,6.2 µM
